This is an account of results in patent US9150530B2, “Esters of 4, 9-dihydroxy-naphtho [2, 3-b] furans for disease therapies” (Zhoushan Haizhongzhou Xinsheng Pharmaceuticals Co., Ltd., priority 2011, dated 2015).

One data set deals with Panc-1. The experiment in a line: Cell viability determination (MTT), Panc-1. The format is cell-based. The note with it: Homo sapiens, Panc-1, pancreatic cancer, 48 hour incubation, read-out: Drug concentrations for 50% cell viability (IC50). From the text: (§1) Cell Culture: A549, DLD1, SW480, LOVO, HT-29, Hela, U-20S, MES-SA, SK-MEL-28, Panc-1, DU-145, CNE, U251, Eca-109, MGC80-3, QGY-7701, BEL-7404, PLC/PRF/5, Huh-7, and SGC-7901 cells were maintained in Dulbecco's Modified Eagle Medium (DMEM) (imported from Invitrogen, Carlsbad, Calif., USA) supplemented with 10% fetal bovine serum (FBS) (Si Ji Qing, Hangzhou, China) and 1% penicillin/streptomycin/amphotericin B (imported from Invitrogen, Carlsbad, Calif., USA).
(§2) Cell Viability Determination: Popular MTT method (Archives of Biochemistry and Biophysics, 1993, 303: 474-482) was used to screen the in vitro effects of the invented drugs. Briefly, 5000 to 10000 cells were inoculated per well in a 96-well plate. After overnight incubation, drug was added to the wells at final concentration of 10 μM, […], 2.5 μM, 1.25 μM, or 1 μM, 0.75 μM, 0.5 μM and 0.25 μM in complete culture medium. Each dose level covered 4 equivalent wells. After 48 hour incubation, one tenth volume of 5 mg/mL MTT (thiazolyl blue tetrazolium bromide, Sigma-Aldrich) stock solution was added, and incubation was continued for 2 hours. Then medium was removed and 100 μL of isopropanol solution comprising 86% isopropanol, 4% aqueous 1 N HCl and 10% aqueous SDS solution (10% in concentration) was added. The absorbance of each well at 570 nm wavelength was measured by a micro-plate reader after gentle shaking for 20 minutes. Drug concentrations of 50% cell viability (IC50) were calculated by LOGIT method.

The next data set relates to MGC80-3. Nature of the data set: Cell viability determination (MTT), MGC80-3. The format is cell-based. The note with it: Homo sapiens, MGC-803, MGC80-3, stomach cancer, 48 hour incubation, read-out: Drug concentrations for 50% cell viability (IC50).
Excerpt: as §1, §2

Another data set concerns SW480. The experiment in a line: Cell viability determination (MTT), SW480. The format is cell-based. The note with it: Homo sapiens, SW480, colorectal cancer, 48 hour incubation, read-out: Drug concentrations for 50% cell viability (IC50).
Excerpt: as §1, §2

The subject of the next data set is U-20S. Nature of the data set: Cell viability determination (MTT), U-20S. As to conditions: osteosarcoma, 48 hour incubation, read-out: Drug concentrations for 50% cell viability (IC50). The format is cell-based.
Excerpt: as §1, §2

The next data set relates to DLD1. Nature of the data set: Cell viability determination (MTT), DLD1. The format is cell-based. The note with it: Homo sapiens, DLD-1, DLD1, colorectal cancer, 48 hour incubation, read-out: Drug concentrations for 50% cell viability (IC50).
Excerpt: as §1, §2

Another data set concerns Hela. The experiment in a line: Cell viability determination (MTT), Hela. As to conditions: Homo sapiens, cervical cancer, 48 hour incubation, read-out: Drug concentrations for 50% cell viability (IC50). The format is cell-based.
Excerpt: as §1, §2

The subject of a further data set is SK-MEL-28. Nature of the data set: Cell viability determination (MTT), SK-MEL-28. The format is cell-based. As to conditions: Homo sapiens, SK-MEL-28, malignant melanoma, 48 hour incubation, read-out: Drug concentrations for 50% cell viability (IC50).
Excerpt: as §1, §2

For a further data set, the system named is MES-SA. The experiment in a line: Cell viability determination (MTT), MES-SA. The note with it: Homo sapiens, leiomyosarcoma, 48 hour incubation, read-out: Drug concentrations for 50% cell viability (IC50). The format is cell-based.
Excerpt: as §1, §2

The test system of another data set is QGY-7701. The experiment in a line: Cell viability determination (MTT), QGY-7701. The format is cell-based. The note with it: QGY7701, QGY-7701, liver cancer, 48 hour incubation, read-out: Drug concentrations for 50% cell viability (IC50).
Excerpt: as §1, §2

A further data set concerns Eca-109. The experiment in a line: Cell viability determination (MTT), Eca-109. The format is cell-based. The note with it: Homo sapiens, Eca-109, esophageal cancer, 48 hour incubation, read-out: Drug concentrations for 50% cell viability (IC50).
Excerpt: as §1, §2

Data set [1] is described as follows: Metabolism in biological fluid (human whole blood, cancer cell lysate, liver microsomes, mouse oral uptake), HPLC. The note with it: liver microsomes or mouse oral uptake system, 20 μM, 37° C. The format is in vitro ADME. The procedure: Second, a major metabolite found after incubation of compound I, III, IV, VI or XIII in biological fluid, such as human whole blood, or cancer cell lysate, or liver microsomes, or mouse oral uptake system, is compound XII (FIG. 3). Similarly, a major metabolite found after incubation of compound V, VII or XIV in biological fluid is 2-(1-hydroxy-n-propyl)-naphtho[2,3-b]furan-4,9-dione (data not shown). Reduction of the position 2 substituent carbonyl group is part of quinone redox reaction as evidenced by the β-lapachone effect on the formation of compound XII in the compound XIII incubation mixture of human whole blood (part D of FIG. 3). The possible reaction mechanism is proposed as shown in scheme 7, in which the two electron reduction could be NQ01 catalyzed reduction or two successive cytochrome b5 reductase or p450 reductase catalyzed reaction. As substrate of these enzymes, β-lapachone could compete for the two electron or single electron reaction and thus reduced formation of the metabolism product.
Crystalline or amorphous solid of compound was mixed with excipient and suspended in 0.5% carboxymethylcellulose (CMC) solution in a mortar. Then the mixture was orally administered into ICR mouse at the predetermined dosage. At the predetermined time point, blood was drawn from the mouse and stored in the vial containing heparin. The blood samples were centrifuged at 6,000 rpm for 10 min, and plasmas were separated. To each plasma sample, 9 times volume of acetonitrile/methyl trifluoromethanesulfonate (1000:1) or acetonitrile/concentrated HCl (1000:1) was added. The resulting mixtures were vortexed and incubated in dry ice for 30 minutes or in −20° C. freezer for 3 hours, then centrifuged, and supernatants were separated for HPLC analysis using gradient B.
The biological systems for in vitro metabolism study include: human whole blood stabilized with sodium citrate; cancer cell lysate (obtained using freeze-thaw method, 10 mg/ml in protein concentration for use); liver microsomes with NADPH generation system (prepared according to the protocol provided by iPhase Pharma, Beijing, China);
10 mM of a compound of formula I or its analog or compound XIII in DMSO (however, compound VI was in DMF) was added into the biological system to a final concentration of 20 μM. The mixtures were incubated at 37° C. for predetermined time. To each sample, then 9 times volume of acetonitrile was added. The resulting mixtures were vortexed and incubated in dry ice for 30 minutes or in −20° C. freezer for 3 hours, then centrifuged, and supernatants were separated for HPLC analysis using gradient B.

As for `CC(=O)Oc1c2ccccc2c(OC(=O)CNC(=O)OC(C)(C)C)c2oc(C(C)=O)cc12` [compound IV, 2-acetyl-4-acetoxy-9-[(tert-butoxycarbonyl)amino]acetoxy-naphtho[2,3-b]furan], the IC50 is 870 nM with Panc-1; 1220 nM with MGC80-3; 910 nM in the data set on SW480; 750 to 1000 nM with U-20S; 300 nM in the data set with DLD1; 860 nM in the data set with Hela. Also, the IC50 with SK-MEL-28 is 250 to 500 nM; with MES-SA, 420 nM; in the data set with QGY-7701, 3.26 µM; in the data set on Eca-109, 1630 nM. For the same compound, in [1], the “Major metabolite found after incubation in biological fluid” value is on record as “compound XII”.
